From article PMC10600007, “Structures illustrate step-by-step mitochondrial transcription initiation” (Nature, 2023)

Legend:
[1] = biological target: T1, y-mtRNAP–Mtf1 (ΔN100 y-mtRNAP with Mtf1) (Saccharomyces cerevisiae, UniProt P13433); assay: cryo-EM structure (IC2, […] Å); assay type: binding; details: pre-melted 33-bp bubble promoter DNA; Mg2+; pH 7.0; 4 °C; two GTP at +1 (P site) and +2 (N site) of polymerase active site
T1 construct: gene RPO41; RPO41 lacking 100 N-terminal residues, His6 tag removed by TEV; Mtf1 His6-tagged (removal not described); both from E. coli; complex assembled on pre-melted promoter DNA; with Mitochondrial transcription factor 1
T1 sequence (P13433 101-1351): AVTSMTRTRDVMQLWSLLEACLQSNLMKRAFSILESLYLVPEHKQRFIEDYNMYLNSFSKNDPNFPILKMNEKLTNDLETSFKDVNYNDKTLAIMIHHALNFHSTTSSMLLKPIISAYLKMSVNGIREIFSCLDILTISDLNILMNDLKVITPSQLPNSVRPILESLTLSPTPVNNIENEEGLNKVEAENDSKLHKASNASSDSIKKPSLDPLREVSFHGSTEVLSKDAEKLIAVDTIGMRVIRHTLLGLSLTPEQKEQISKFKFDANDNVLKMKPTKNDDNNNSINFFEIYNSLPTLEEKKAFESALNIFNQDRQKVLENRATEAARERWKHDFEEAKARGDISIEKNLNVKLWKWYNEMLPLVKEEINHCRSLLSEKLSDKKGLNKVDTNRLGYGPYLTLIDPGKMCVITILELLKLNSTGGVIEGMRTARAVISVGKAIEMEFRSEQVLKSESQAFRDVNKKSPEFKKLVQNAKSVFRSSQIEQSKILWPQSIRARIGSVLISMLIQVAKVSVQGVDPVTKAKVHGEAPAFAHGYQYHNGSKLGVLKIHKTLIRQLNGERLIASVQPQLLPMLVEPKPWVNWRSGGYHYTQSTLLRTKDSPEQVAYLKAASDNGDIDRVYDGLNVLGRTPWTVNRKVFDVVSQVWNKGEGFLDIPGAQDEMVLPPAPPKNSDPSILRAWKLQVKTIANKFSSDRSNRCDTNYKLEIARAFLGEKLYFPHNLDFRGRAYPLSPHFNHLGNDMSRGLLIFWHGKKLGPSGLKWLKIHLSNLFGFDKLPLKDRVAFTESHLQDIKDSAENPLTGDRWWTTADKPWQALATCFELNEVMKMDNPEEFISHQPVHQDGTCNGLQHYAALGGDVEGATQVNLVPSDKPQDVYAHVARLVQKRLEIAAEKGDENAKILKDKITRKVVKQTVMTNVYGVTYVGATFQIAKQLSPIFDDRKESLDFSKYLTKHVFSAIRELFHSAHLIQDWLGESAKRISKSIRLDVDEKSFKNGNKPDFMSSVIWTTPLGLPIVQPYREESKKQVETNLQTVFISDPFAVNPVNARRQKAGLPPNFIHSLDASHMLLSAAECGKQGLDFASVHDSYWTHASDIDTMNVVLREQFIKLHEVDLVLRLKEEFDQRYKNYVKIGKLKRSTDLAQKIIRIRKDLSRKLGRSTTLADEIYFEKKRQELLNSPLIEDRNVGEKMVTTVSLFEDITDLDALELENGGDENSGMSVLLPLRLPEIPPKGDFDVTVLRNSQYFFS
T1 sequence (P14908 2-341 partner): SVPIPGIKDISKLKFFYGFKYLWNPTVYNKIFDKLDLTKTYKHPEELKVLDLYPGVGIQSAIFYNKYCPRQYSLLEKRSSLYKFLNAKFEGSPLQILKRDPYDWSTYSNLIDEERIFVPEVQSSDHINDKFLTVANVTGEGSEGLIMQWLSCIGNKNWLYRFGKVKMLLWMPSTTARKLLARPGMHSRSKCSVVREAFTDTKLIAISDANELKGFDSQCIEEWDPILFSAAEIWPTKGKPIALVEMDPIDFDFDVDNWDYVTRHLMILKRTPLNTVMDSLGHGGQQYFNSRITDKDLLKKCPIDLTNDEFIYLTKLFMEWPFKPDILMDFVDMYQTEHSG

[2] = biological target: T2, ΔN100 y-mtRNAP (yeast mitochondrial RNA polymerase, Rpo41, 100 amino-terminal residues deleted) (S. cerevisiae, UniProt P13433 101-1351); assay: cryo-EM structure; PmIC of ΔN100 y-mtRNAP, Mtf1 and pre-melted bubble promoter DNA (molar ratio 1:1.2:1.2, 2 h, 4 °C), purified by SEC, then incubated with NTPs or pppGpG 2 h at 4 °C to give IC2, IC4-IC8 and IC8'; 50 mM Bis-tris propane pH 7.0, 100 mM NaCl, 5 mM MgCl2, 1 mM EDTA, 2 mM DTT; details: both partners purified
T2 construct: S. cerevisiae mitochondrial RNA polymerase Rpo41 (y-mtRNAP), UniProt P13433; 100 amino-terminal residues deleted; end residue S1351; Plasmid ProEXHTB; In the structures the chain is traced only from I386 (A407 in IC4) to S1351 with gaps; source: E. coli BL21 RIL Codon Plus, purified (DEAE/Ni-Sepharose, heparin, TEV cleavage, second Ni-Sepharose flow-through)
T2 sequence (looked up): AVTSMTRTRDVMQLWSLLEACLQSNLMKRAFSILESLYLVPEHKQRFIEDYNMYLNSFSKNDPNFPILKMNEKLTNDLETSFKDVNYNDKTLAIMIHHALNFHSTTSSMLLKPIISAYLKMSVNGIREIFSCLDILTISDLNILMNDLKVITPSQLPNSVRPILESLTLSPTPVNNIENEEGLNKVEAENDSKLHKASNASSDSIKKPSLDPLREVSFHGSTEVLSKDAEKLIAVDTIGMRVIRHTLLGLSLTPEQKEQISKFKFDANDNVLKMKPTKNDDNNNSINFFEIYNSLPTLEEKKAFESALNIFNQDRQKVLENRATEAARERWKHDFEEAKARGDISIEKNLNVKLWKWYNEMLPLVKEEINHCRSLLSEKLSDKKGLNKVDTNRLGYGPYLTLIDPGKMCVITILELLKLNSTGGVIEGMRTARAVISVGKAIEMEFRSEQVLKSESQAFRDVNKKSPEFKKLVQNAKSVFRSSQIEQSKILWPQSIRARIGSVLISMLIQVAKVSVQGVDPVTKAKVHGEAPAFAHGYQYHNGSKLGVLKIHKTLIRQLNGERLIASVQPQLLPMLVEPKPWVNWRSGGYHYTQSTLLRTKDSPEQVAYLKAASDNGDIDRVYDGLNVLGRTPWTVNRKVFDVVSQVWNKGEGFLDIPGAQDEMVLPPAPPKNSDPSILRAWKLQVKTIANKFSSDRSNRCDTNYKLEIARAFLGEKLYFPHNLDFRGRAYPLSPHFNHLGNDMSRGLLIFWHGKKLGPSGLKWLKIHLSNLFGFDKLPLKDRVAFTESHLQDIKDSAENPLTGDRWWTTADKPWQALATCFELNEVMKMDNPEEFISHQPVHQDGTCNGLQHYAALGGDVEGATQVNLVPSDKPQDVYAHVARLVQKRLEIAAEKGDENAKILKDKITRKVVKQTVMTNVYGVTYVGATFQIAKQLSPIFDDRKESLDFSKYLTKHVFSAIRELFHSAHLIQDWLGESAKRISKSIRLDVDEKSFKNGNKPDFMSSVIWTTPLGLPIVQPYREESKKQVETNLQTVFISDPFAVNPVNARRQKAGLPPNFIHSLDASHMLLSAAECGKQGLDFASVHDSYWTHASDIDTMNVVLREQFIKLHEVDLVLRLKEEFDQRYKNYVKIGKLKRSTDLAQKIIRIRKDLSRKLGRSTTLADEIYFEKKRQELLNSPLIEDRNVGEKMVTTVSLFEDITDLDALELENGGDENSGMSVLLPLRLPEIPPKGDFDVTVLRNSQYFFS

Row | Molecule | cryo-EM structure (IC2, 3.47 Å) [1] | binding result [2]
1 | Nc1nc2c(ncn2[C@@H]2O[C@H](COP(=O)(O)OP(=O)(O)OP(=O)(O)O)[C@@H](O)[C@H]2O)c(=O)[nH]1 [GTP] | IC2 was captured with two GTP molecules bound at the transcription start site poised for catalysis | –
2 | Mtf1 (yeast mitochondrial transcription factor) (natural protein, S. cerevisiae, S. cerevisiae Mtf1, mitochondrial transcription factor; wild type; traced in the structures from S2 to at most G341 (end residue); Plasmid pTrcHisC; No removal of the His6 tag is described; N-terminal domain residues 1-252, C-terminal domain residues 255-341 are named, so the whole protein is likely; source: E. coli BL21, purified (DEAE/Ni-Sepharose, heparin-Sepharose)) SVPIPGIKDISKLKFFYGFKYLWNPTVYNKIFDKLDLTKTYKHPEELKVLDLYPGVGIQSAIFYNKYCPRQYSLLEKRSSLYKFLNAKFEGSPLQILKRDPYDWSTYSNLIDEERIFVPEVQSSDHINDKFLTVANVTGEGSEGLIMQWLSCIGNKNWLYRFGKVKMLLWMPSTTARKLLARPGMHSRSKCSVVREAFTDTKLIAISDANELKGFDSQCIEEWDPILFSAAEIWPTKGKPIALVEMDPIDFDFDVDNWDYVTRHLMILKRTPLNTVMDSLGHGGQQYFNSRITDKDLLKKCPIDLTNDEFIYLTKLFMEWPFKPDILMDFVDMYQTEHSG | – | binds
